pIC50: −log10 of the molar value.
System: not listed separately
Assay: Mouse PK Assay
Format: in vivo
Details: plasma; male BALB/c mouse, IV

MRT [h]	Structure (SMILES)
8	N#Cc1ccc(N2CC3(CCC4(CC4)CC3)c3cc(NS(=O)(=O)CCO)c(F)cc3C2=O)nc1N1CCC(F)(F)CC1 [Compound 75]

Same assay, conditions: plasma; male BALB/c mouse, single oral dose 5 mg/kg; read-out: PO T1/2 (converted)

half-life [h]	Structure (SMILES)
6.3	N#Cc1ccc(N2CC3(CCC4(CC4)CC3)c3cc(NS(=O)(=O)CCO)c(F)cc3C2=O)nc1N1CCC(F)(F)CC1 [Compound 75]

System: OVCAR3 Cells
Assay: OVCAR3 Cell Viability Assay (CellTiter-Glo)
Format: cell-based
Details: Homo sapiens, OVCAR-3, 144 h, 6 days incubation, read-out: OVCAR3 CTG IC50
Procedure: (§1) OVCAR3 Cells (ATCC, Cat #HTB-161) were seeded at a density of 2000 cells/well in a 96-well clear bottom plate (Greiner, Cat #655098) in 100 μL of complete media (RPMI1640+20% FBS+0.01 mg/mL human insulin). One hundred microliter of complete media was added into the blank well (column 1) for low control. Cells were allowed to adhere to the plate overnight in the incubator at 37° C., 5% CO2. On the following day, 0.5 μL of serially-diluted compounds were added to the cells (columns 2-10) and incubated for 6 days at 37 C, 5% CO2 (final 0.5% DMSO concentration); 0.5 μL of DMSO solution was added into the wells (column 11) for high control. Cell viability was detected according to the CellTiter-Glo Luminescent Cell Viability Assay Kit (Promega, Cat #G7573). Luminescence was recorded on the Tecan Spark plate reader. Inhibition rate (IR) of the tested compounds was determined by the following formula: IR (%)=(1−(RLUcompound−RLUlow control)/(RLUhigh control−RLUlow control))×100%. The IC50 value was calculated using the non-linear regression equation: Y=Bottom+(Top−Bottom)/(1+10^((Log IC50−X)×HillSlope)), where X is Log of compound concentration, Y is percent inhibition (IR (%)), Top and Bottom are plateaus in same units as Y.

pIC50	Structure (SMILES)
< 5.70	O=C(Nc1ccc2c(c1)ncn2CC(F)(F)F)c1ccc(NS(=O)(=O)CCO)cc1N1CCC2(CC1)CC2 [Compound 3]
> 6.70	Cc1cc(NC(=O)c2ccc(NS(=O)(=O)CCO)cc2C2=CCC3(CC2)CC3)nc(N2CCC(F)(F)CC2)n1 [Compound 6]
5.70 to 6.70	O=C1c2ccc(NS(=O)(=O)CCO)cc2C2(CCC3(CC3)CC2)CN1c1ccnc(N2CCC(F)(F)C2)n1 [Compound 12]
5.70 to 6.70	O=C1c2ccc(NS(=O)(=O)CCO)cc2C2(CCC3(CC3)CC2)CN1c1cccc(N2CCC3CC32)n1 (stereo not shown) [Compound 26]
5.70 to 6.70	O=C1c2ccc(NS(=O)(=O)CCO)cc2C2(CCC3(CC3)CC2)CN1c1ccc2c(n1)N1CCC(F)(F)CC1CO2 (stereo not shown) [Compound 31]
> 6.70	CN(c1cccc(N2CC3(CCC4(CC4)CC3)c3cc(NS(=O)(=O)CCO)ccc3C2=O)n1)C1CC(F)(F)C1 [Compound 34]
> 6.70	CC(C)[C@H](N)C(=O)OCCS(=O)(=O)Nc1ccc2c(c1)C1(CCC3(CC3)CC1)CN(c1ccc(C#N)c(N3CCC(F)(F)CC3)n1)C2=O [Compound 132]
> 6.70	COc1ccc(N2CC3(CCC4(CC4)CC3)c3cc(NS(=O)(=O)CCOC(=O)[C@@H](N)C(C)C)ccc3C2=O)nc1N1CCC(F)(F)CC1 [Compound 134]
> 6.70	CC(C)[C@H](N)C(=O)OCCS(=O)(=O)Nc1ccc2c(c1)C1(CCC3(CC3)CC1)CN(c1ccnc(NC3CC(F)(F)C3)n1)C2=O [Compound 135]
> 6.70	O=C1c2ccc(NS(=O)(=O)CCO)cc2C2(CCC3(CC3)CC2)CN1c1ccc(O)c(N2CCC(F)(F)CC2)n1 [Compound 137]
> 6.70	NC(=O)c1ccc(N2CC3(CCC4(CC4)CC3)c3cc(NS(=O)(=O)CCO)ccc3C2=O)nc1N1CCC(F)(F)CC1 [Compound 139]
> 6.70	Cn1cc(-c2ccc(N3CC4(CCC5(CC5)CC4)c4cc(NS(=O)(=O)CCO)ccc4C3=O)nc2N2CCC(F)(F)CC2)cn1 [Compound 141]
> 6.70	Cn1ccc(-c2ccc(N3CC4(CCC5(CC5)CC4)c4cc(NS(=O)(=O)CCO)ccc4C3=O)nc2N2CCC(F)(F)CC2)n1 [Compound 142]
> 6.70	CCNC(=O)c1ccc(N2CC3(CCC4(CC4)CC3)c3cc(NS(=O)(=O)CCO)ccc3C2=O)nc1N1CCC(F)(F)CC1 [Compound 144]
> 6.70	CCS(=O)(=O)Nc1ccc2c(c1)C1(CCC3(CC3)CC1)CN(c1ccnc(NC3CC(F)(F)C3)n1)C2=O [Compound 145]
> 6.70	COc1ncc(N2CC3(CCC4(CC4)CC3)c3cc(NS(=O)(=O)CCO)ccc3C2=O)nc1N1CCC(F)(F)CC1 [Compound 146]
5.70 to 6.70	CN(C)CCS(=O)(=O)Nc1ccc2c(c1)C1(CCC3(CC3)CC1)CN(c1ccc(C#N)c(N3CCC(F)(F)CC3)n1)C2=O [Compound 147]
5.70 to 6.70	COCCS(=O)(=O)Nc1ccc2c(c1)C1(CCC3(CC3)CC1)CN(c1ccnc(NC3CC(F)(F)C3)n1)C2=O [Compound 148]
> 6.70	O=C1c2ccc(NS(=O)(=O)CCO)cc2C2(CCC3(CC3)CC2)CN1c1ccc(C(F)F)c(N2CCC(F)(F)CC2)n1 [Compound 149]
> 6.70	CCc1ccc(N2CC3(CCC4(CC4)CC3)c3cc(NS(=O)(=O)CCO)ccc3C2=O)nc1N1CCC(F)(F)CC1 [Compound 150]
> 6.70	O=C1c2ccc(NS(=O)(=O)CCO)cc2C2(CCC3(CC3)CC2)CN1c1ccc(C2CC2)c(N2CCC(F)(F)CC2)n1 [Compound 151]
> 6.70	CN(C)c1ccc(N2CC3(CCC4(CC4)CC3)c3cc(NS(=O)(=O)CCO)ccc3C2=O)nc1N1CCC(F)(F)CC1 [Compound 152]
5.70 to 6.70	COc1ccc(N2CC3(CCC4(CC4)CC3)c3cc(NS(=O)(=O)CCN(C)C)ccc3C2=O)nc1N1CCC(F)(F)CC1 [Compound 153]

pIC50	Structure (SMILES)
> 6.70	O=C1c2ccc(NS(=O)(=O)CCO)cc2C2(CCC3(CC3)CC2)CN1c1ccc(C(F)(F)F)c(N2CCC(F)(F)CC2)n1 [Compound 154]
> 6.70	O=C1c2ccc(NS(=O)(=O)CCO)cc2C2(CCC3(CC3)CC2)CN1c1ccc(OC(F)F)c(N2CCC(F)(F)CC2)n1 [Compound 155]
< 5.70	O=C1c2ccc(NS(=O)(=O)C(F)(F)F)cc2C2(CCC3(CC3)CC2)CN1c1ccnc(NC2CC(F)(F)C2)n1 [Compound 156]
> 6.70	N#Cc1ncc(N2CC3(CCC4(CC4)CC3)c3cc(NS(=O)(=O)CCO)ccc3C2=O)nc1N1CCC(F)(F)CC1 [Compound 157]
> 6.70	N#Cc1ccc(N2CC3(CCC4(CC4)CC3)c3cc(NS(=O)(=O)CC(F)(F)F)ccc3C2=O)nc1N1CCC(F)(F)CC1 [Compound 158]
5.70 to 6.70	N#Cc1ccc(N2CC3(CCC4(CC4)CC3)c3cc(NS(=O)(=O)C(F)(F)F)ccc3C2=O)nc1N1CCC(F)(F)CC1 [Compound 159]
> 6.70	Cc1ncc(-c2ccc(N3CC4(CCC5(CC5)CC4)c4cc(NS(=O)(=O)CCO)ccc4C3=O)nc2N2CCC(F)(F)CC2)cn1 [Compound 160]
> 6.70	Cc1ccc(-c2ccc(N3CC4(CCC5(CC5)CC4)c4cc(NS(=O)(=O)CCO)ccc4C3=O)nc2N2CCC(F)(F)CC2)cn1 [Compound 161]
> 6.70	CCNC(=O)c1ccc(N2CC3(CCC4(CC4)CC3)c3cc(NS(=O)(=O)CCO)ccc3C2=O)nc1NC1CC(F)(F)C1 [Compound 162]
> 6.70	Cn1cc(-c2ccc(N3CC4(CCC5(CC5)CC4)c4cc(NS(=O)(=O)CCO)ccc4C3=O)nc2NC2CC(F)(F)C2)cn1 [Compound 163]
> 6.70	Cc1cc(-c2ccc(N3CC4(CCC5(CC5)CC4)c4cc(NS(=O)(=O)CCO)ccc4C3=O)nc2N2CCC(F)(F)CC2)ccn1 [Compound 164]
> 6.70	NC(=O)c1ncc(N2CC3(CCC4(CC4)CC3)c3cc(NS(=O)(=O)CCO)ccc3C2=O)nc1N1CCC(F)(F)CC1 [Compound 165]
< 5.70	O=C1c2ccc(NS(=O)(=O)CC(F)(F)F)cc2C2(CCC3(CC3)CC2)CN1c1ccnc(NC2CC(F)(F)C2)n1 [Compound 166]
> 6.70	NC(=O)c1ccc(N2CC3(CCC4(CC4)CC3)c3cc(NS(=O)(=O)CCO)ccc3C2=O)nc1NC1CC(F)(F)C1 [Compound 167]
> 6.70	Cn1cnc(-c2ccc(N3CC4(CCC5(CC5)CC4)c4cc(NS(=O)(=O)CCO)ccc4C3=O)nc2NC2CC(F)(F)C2)c1 [Compound 169]
5.70 to 6.70	Cn1ccc(-c2ccc(N3CC4(CCC5(CC5)CC4)c4cc(NS(=O)(=O)CCO)ccc4C3=O)nc2NC2CC(F)(F)C2)n1 [Compound 170]
5.70 to 6.70	CN1CCN(C(=O)c2ccc(N3CC4(CCC5(CC5)CC4)c4cc(NS(=O)(=O)CCO)ccc4C3=O)nc2N2CCC(F)(F)CC2)CC1 [Compound 172]
> 6.70	Cc1nccc(-c2ccc(N3CC4(CCC5(CC5)CC4)c4cc(NS(=O)(=O)CCO)ccc4C3=O)nc2NC2CC(F)(F)C2)n1 [Compound 174]
> 6.70	Cn1cnc(-c2ccc(N3CC4(CCC5(CC5)CC4)c4cc(NS(=O)(=O)CCO)ccc4C3=O)nc2N2CCC(F)(F)CC2)n1 [Compound 175]
5.70 to 6.70	CN1CC=C(c2ccc(N3CC4(CCC5(CC5)CC4)c4cc(NS(=O)(=O)CCO)ccc4C3=O)nc2N2CCC(F)(F)CC2)CC1 [Compound 176]
> 6.70	CN1CCN(c2ccc(N3CC4(CCC5(CC5)CC4)c4cc(NS(=O)(=O)CCO)ccc4C3=O)nc2N2CCC(F)(F)CC2)C(=O)C1 [Compound 178]
5.70 to 6.70	CN1CCC(c2ccc(N3CC4(CCC5(CC5)CC4)c4cc(NS(=O)(=O)CCO)ccc4C3=O)nc2N2CCC(F)(F)CC2)CC1 [Compound 179]
> 6.70	O=C1c2ccc(NS(=O)(=O)CCO)cc2C2(CCC3(CC3)CC2)CN1c1ccc(-c2cc[nH]n2)c(N2CCC(F)(F)CC2)n1 [Compound 180]

System: HCC1806 Cells
Assay: HCC1806 Cell Viability Assay (CellTiter-Glo)
Format: cell-based
Details: Homo sapiens, 144 h, 6 days incubation, read-out: HCC1806 CTG IC50
Procedure: as §1, with “HCC1806 Cells” for “OVCAR3 Cells”, “Cat #CRL-2335)” for “Cat #HTB-161)”, “of 500” for “of 2000”, “media (RPMI1640+10% FBS).” for “media (RPMI1640+20% FBS+0.01 mg/mL human insulin).”, “blank wells” for “blank well”, “at 37° C.,” for “at 37 C,”

pIC50	Structure (SMILES)
< 5.70	O=C(Nc1ccc2c(c1)ncn2CC(F)(F)F)c1ccc(NS(=O)(=O)CCO)cc1N1CCC2(CC1)CC2 [Compound 3]
> 6.70	Cc1cc(NC(=O)c2ccc(NS(=O)(=O)CCO)cc2C2=CCC3(CC2)CC3)nc(N2CCC(F)(F)CC2)n1 [Compound 6]
< 5.70	CN1CCOc2ccc(NC(=O)c3ccc(NS(=O)(=O)CCO)cc3N3CCC4(CC3)CC4)nc21 [Compound 7]
5.70 to 6.70	O=C1c2ccc(NS(=O)(=O)CCO)cc2C2(CCC3(CC3)CC2)CN1c1ccnc(N2CCC(F)(F)C2)n1 [Compound 12]
5.70 to 6.70	O=C1c2ccc(NS(=O)(=O)CCO)cc2C2(CCC3(CC3)CC2)CN1c1cccc(N2CCC3CC32)n1 (stereo not shown) [Compound 26]
5.70 to 6.70	O=C1c2ccc(NS(=O)(=O)CCO)cc2C2(CCC3(CC3)CC2)CN1c1ccc2c(n1)N1CCC(F)(F)CC1CO2 (stereo not shown) [Compound 31]
> 6.70	CN(c1cccc(N2CC3(CCC4(CC4)CC3)c3cc(NS(=O)(=O)CCO)ccc3C2=O)n1)C1CC(F)(F)C1 [Compound 34]

— patent US20260184692A1, “HETEROCYCLIC COMPOUNDS, PREPARATION METHODS AND USES THEREOF” (InventisBio Co., Ltd., priority 2022, published 2026)
